According to patent publication US11085056B2, “Transfection complexes and methods of using the same” (MOLECULAR TRANSFER, INC., priority 2015, dated 2021):

How the values were obtained:
HeLa Cells = assay: Transfection of HeLa cells with DOTMA/DOPE/peptide and eGFP plasmid, fluorescent plate reader; assay type: cell-based; settings: DOTMA/DOPE 1:1 plus peptide with RRRRRRRRRRRR (SEQ ID NO: 109) at n terminus; EF1Alpha eGFP plasmid; 0.01 mL complex; 42 hours
Protocol: (§1) Cells were plated to so that on the day of transfection the cells were 60-70% confluent in 96 well tissue culture plates. A DOMTA/DOPE Lipid solution (1:1 molar ratio) at 2 mg/mL in water were mixed with an equal volume of surface ligand peptides that had the nucleic acid binding moiety RRRRRRRRRRRR (SEQ ID NO: 109) covalently linked to the n terminus of each peptide during peptide synthesis. Peptides were at 2 mg/mL in water. The DOTMA/DOPE and the surface ligand peptide solution the transfection reagent was diluted 1 to 1 (v/v) in water. DOMTA/DOPE/PEPTIDE solutions were added to 0.1 mL of a plasmid DNA solution (EF1Alpha eGFP plasmid) at 5 μg/mL in OptiMEM. Lipofectamine 2000 was obtained from Life Technologies.
(§2) All solutions were at room temperature. A volume of 0.2 mL of a 5 μg/mL solution of DNA was aliquoted into each well of a non-tissue cultured treated plate. 4.0 μL of transfection reagents were added to DNA solutions respectively. The transfection reagent and DNA solution was mixed by pipetting up and down twice. Transfection complexes were formed for 10 minutes. After 10 minutes, 0.01 or 0.02 mL of the transfection complex was added to cells. HuVEC, HeLa, human adult keratinocytes, human primary adult fibroblast, and rat cortical neurons all respectively received 0.01 mL of the tramsfectopm complex. Human skeletal muscle cells, mouse C2C12 cells, Jurkat, and THP-1 cells received 0.02 mL of the transfection complex. Cells were incubated for 42 hours at 37° C. at 5% CO2. Plates were read on a fluorescent plate reader. Cells were also examined visually under a microscope to assess the extent of transfection (in terms of the percent of cells transfected) with a fluorescent microscope. Other modes of analysis, for example quantification with B-galactosidase or luciferase reports plasmids can also be used. […] Surface ligand that caused increase expression of GFP over the lipid DOTMA with no surface ligand were considered to enhance transfection or had higher % cells transfected were considered to enhance transfection. Peptides that gave greater than 2 fold enhancement are noted in bold and could be further optimized by adding different transfection enhancers or could be used with different cationic lipids or polymers.

HuVec Cells = assay: Transfection of HuVec cells with DOTMA/DOPE/peptide and eGFP plasmid, fluorescent plate reader; assay type: cell-based; settings: DOTMA/DOPE 1:1 plus peptide with RRRRRRRRRRRR (SEQ ID NO: 109) at n terminus; EF1Alpha eGFP plasmid; 0.01 mL complex; 42 hours
Protocol: as §1, §2

NL-1 iPS Cells = assay: Transfection of NL-1 iPS cells with DOTMA/DOPE/peptide and eGFP plasmid, fluorescent plate reader; assay type: cell-based; settings: DOTMA/DOPE 1:1 plus peptide with RRRRRRRRRRRR (SEQ ID NO: 109) at n terminus; EF1Alpha eGFP plasmid; 42 hours
Protocol: as §1, §2

C2C12 Cells = assay: Transfection of C2C12 cells with DOTMA/DOPE/peptide and eGFP plasmid, fluorescent plate reader; assay type: cell-based, mouse; settings: DOTMA/DOPE 1:1 plus peptide with RRRRRRRRRRRR (SEQ ID NO: 109) at n terminus; EF1Alpha eGFP plasmid; 0.02 mL complex; 42 hours
Protocol: as §1, §2

Human Fibroblast Cells = assay: Transfection of human fibroblast cells with DOTMA/DOPE/peptide and eGFP plasmid, fluorescent plate reader; assay type: cell-based; settings: DOTMA/DOPE 1:1 plus peptide with RRRRRRRRRRRR (SEQ ID NO: 109) at n terminus; EF1Alpha eGFP plasmid; 0.01 mL complex; 42 hours
Protocol: as §1, §2

Jurkat Cells = assay: Transfection of Jurkat cells with DOTMA/DOPE/peptide and eGFP plasmid, fluorescent plate reader; assay type: cell-based; settings: DOTMA/DOPE 1:1 plus peptide with RRRRRRRRRRRR (SEQ ID NO: 109) at n terminus; EF1Alpha eGFP plasmid; 0.02 mL complex; 42 hours
Protocol: as §1, §2

some examined cell types = assay: Transfection expression and % cells transfected over the no peptide control; assay type: cell-based; settings: on some examined cell types
Protocol: as §1, §2

Substance	RF (Relative Fluorescence) of Transfection of HeLa Cells (HeLa Cells)	RF (Relative Fluorescence) of Transfection of HuVec Cells (HuVec Cells)	RF (Relative Fluorescence) of Transfection of NL-1 iPS Cells (NL-1 iPS Cells)	RF (Relative Fluorescence) of Transfection of C2C12 Cells (C2C12 Cells)	RF (Relative Fluorescence) of Transfection of Human Fibroblast Cells (Human Fibroblast Cells)	RF (Relative Fluorescence) of Transfection of Jurkat Cells (Jurkat Cells)	transfection expression and the % cells transfected over the no peptide control (some examined cell types)
216 (YRVRVTPKEKTGPMKE; Peptidic transfection agent) [compound 216]	6181	14693	19626	1001	3117	3570	increased
361 (YIGSR; Peptidic transfection agent) [compound 361]	3698	6017	9363	585	7014	7006	increased
205 (AASIKVAVSADR; Peptidic transfection agent) [compound 205]	26368	8309	13140	2102	8550	2298	increased
220 (ATETTITIS; Peptidic transfection agent) [compound 220]	9398	8737	15892	1470	4516	6428	increased
359 (KAFDITYVRLKF; Peptidic transfection agent) [compound 359]	3136	3024	5548	5693	3206	1880	increased
332 (TWYKIAFQRNRK; Peptidic transfection agent) [compound 332]	9198	4221	8725	537	5178	3052	increased
345 (TAGSCLRKFSTMFLF; Peptidic transfection agent) [compound 345]	8493	2939	7836	6569	2816	2462	increased
